Molecules are shown by their SMILES.

One data set addresses FLT-3 (Homo sapiens (Human), UniProt P36888). The data set can be described thus: FLT-3 kinase activity test (Caliper mobility shift assay). It counts as biochemical. Here is the method:
(§1) Caliper mobility shift assay was used to determine the kinase activities of c-Kit, PDGFRα, PDGFRβ, and FLT-3.
(§2) The final concentration of the kinase and its corresponding substrate (ATP and peptide substrate P2 or P22) during the experiment is as follows:
(§3) Add 5 μL of compound (10% DMSO) at 5 times the final concentration of the reaction to a 384-well plate. Add 10 μL of 2.5×enzyme solution and incubate for 10 minutes at room temperature, then add 10 μL of 2.5×substrate (ATP and peptide substrate, P2 or P22). After incubating at 28° C. for 60 minutes, add 25 μL stop solution to stop the reaction. Read conversion rate data on Caliper EZ Reader II (Caliper Life Sciences). Convert the conversion rate into inhibition rate data (% inhibition rate=(max−sample conversion rate)/(max−min)×100). Where max refers to the conversion rate of the DMSO control, and min refers to the conversion rate of the control without enzyme activity. Draw a curve with compound concentration and inhibition rate on the abscissa and ordinate, use XLFit excel add-in version 4.3.1 software to fit the curve and calculate IC50.

The nature of data set [1]: Pharmacokinetic evaluation in CD-1 mice, gavage. In kind it is in vivo. As to conditions: 10 mg/kg, plasma; for bioavailability / Cmax / half-life: mouse, po; for half-life: read-out: T½ (converted). An excerpt: Using mice as the test animals, the LC/MS/MS method was used to determine that the mice were intragastrically administered the compound of Example 1, the compound of Example 2, the compound of Example 3, the compound of Example 4, the compound of Example 10, and the compound of Example 14. Compound, the concentration of the drug in the plasma at different times after the compound of Example 26. Study the pharmacokinetic behavior of the compound of the present invention in mice and evaluate its pharmacokinetic characteristics.
The test animals were CD-1 mice, purchased from Shanghai Slack Laboratory Animal Co., Ltd.
Weigh a certain amount of drug, add 5% volume of DMSO or DMAc, 5% volume of PEG400 and 90% volume of normal saline to prepare 1.0 mg/mL colorless, clear and transparent liquid or uniformly dispersed suspension.
CD-1 mice were fasted overnight and then administered by gavage. The dosage was 10 mg/kg and the dosage was 10 mL/kg.
Gavage the mice before and after administration at 0.25, 0.5, 1.0, 2.0, 4.0, 6.0, 8.0, 24.0 hours to collect 0.1 mL of blood, place it in a K2-EDTA anticoagulation tube, and centrifuge at 3500 rpm for 10 minutes. Plasma, stored at −20° C.
To determine the content of the test compound in mouse plasma after gavage of different concentrations of drugs: take 20 uL of mouse plasma at each moment after administration, add propranolol and tolbutamide (each 100 ng/mL) 200 uL of acetonitrile solution, vortex for 5 minutes, centrifuge for 12 minutes (4000 rpm), and take 5 uL of the supernatant from the plasma sample for LC/MS/MS analysis.

The target of the next data set is c-Kit (Homo sapiens (Human), UniProt P10721). The data set can be described thus: c-Kit kinase activity test (Caliper mobility shift assay). In kind it is biochemical. Here is the method:
as §1, §2, §3

Another data set deals with PDGFRβ (Homo sapiens (Human), UniProt P09619). Description: PDGFRβ kinase activity test (Caliper mobility shift assay). In kind it is biochemical. As to the method: as §1, §2, §3
Another data set concerns the target CSF1R (Homo sapiens (Human), UniProt P07333). The data set can be described thus: CSF1R kinase activity test (HTRF). In kind it is biochemical. Conditions: ATP 8 μM. As to the method:
In a 384-well plate, add 10 nL of the test compound to each well with the Echo 550 sample loading device. […] Use this buffer to adjust the concentration of CSF1R to 0.02 ng/ul. Add 5 μL of buffer containing CSF1R to the 384-well plate after centrifugation at 1000 g for 30 seconds and incubate at room temperature for 10 minutes. […] The inhibition rate of each point is obtained by the following formula: […]
Wherein, Ratiopositive: the experimental positive control None; Ratiovehicle: is the test value of 0.1% DMSO. With the compound concentration and inhibition rate on the abscissa and ordinate, the curve was drawn, and the curve was fitted with Graphpad 5.0 software and the IC50 was calculated.
Background: In TR-FRET formats the signal depends on donor and acceptor labels being close together.

A further data set concerns the target FMS (Homo sapiens (Human), UniProt P07333).

Sequence of PDGFRβ (P09619 33-1106): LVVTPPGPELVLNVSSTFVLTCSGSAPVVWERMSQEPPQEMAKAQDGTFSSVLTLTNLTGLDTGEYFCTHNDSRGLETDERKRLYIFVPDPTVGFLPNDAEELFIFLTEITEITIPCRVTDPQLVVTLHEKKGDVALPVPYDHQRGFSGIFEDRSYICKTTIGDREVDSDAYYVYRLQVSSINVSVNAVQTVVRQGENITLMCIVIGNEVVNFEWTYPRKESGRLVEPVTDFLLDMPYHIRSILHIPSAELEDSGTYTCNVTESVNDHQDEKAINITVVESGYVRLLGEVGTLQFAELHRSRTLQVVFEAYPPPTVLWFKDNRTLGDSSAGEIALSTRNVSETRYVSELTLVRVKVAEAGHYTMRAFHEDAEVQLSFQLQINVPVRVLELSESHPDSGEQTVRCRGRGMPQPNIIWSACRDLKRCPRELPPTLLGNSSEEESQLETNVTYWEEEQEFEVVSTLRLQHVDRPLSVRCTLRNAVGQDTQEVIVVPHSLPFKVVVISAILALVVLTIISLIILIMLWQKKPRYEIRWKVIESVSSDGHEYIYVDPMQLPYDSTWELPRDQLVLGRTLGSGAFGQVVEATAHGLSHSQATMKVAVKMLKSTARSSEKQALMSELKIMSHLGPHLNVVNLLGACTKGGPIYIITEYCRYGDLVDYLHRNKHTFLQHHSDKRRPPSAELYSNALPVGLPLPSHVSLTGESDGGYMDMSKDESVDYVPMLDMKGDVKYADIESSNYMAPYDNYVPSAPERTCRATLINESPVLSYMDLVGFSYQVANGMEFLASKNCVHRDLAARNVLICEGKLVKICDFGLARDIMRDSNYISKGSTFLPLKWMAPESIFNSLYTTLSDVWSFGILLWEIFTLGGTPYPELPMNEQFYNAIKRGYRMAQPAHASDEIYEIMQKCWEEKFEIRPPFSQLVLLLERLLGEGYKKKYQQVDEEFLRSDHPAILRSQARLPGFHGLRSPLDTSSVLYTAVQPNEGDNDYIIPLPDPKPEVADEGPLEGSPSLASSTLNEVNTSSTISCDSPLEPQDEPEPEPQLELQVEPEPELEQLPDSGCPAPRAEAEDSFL
Sequence of CSF1R (P07333 20-972, species assumed): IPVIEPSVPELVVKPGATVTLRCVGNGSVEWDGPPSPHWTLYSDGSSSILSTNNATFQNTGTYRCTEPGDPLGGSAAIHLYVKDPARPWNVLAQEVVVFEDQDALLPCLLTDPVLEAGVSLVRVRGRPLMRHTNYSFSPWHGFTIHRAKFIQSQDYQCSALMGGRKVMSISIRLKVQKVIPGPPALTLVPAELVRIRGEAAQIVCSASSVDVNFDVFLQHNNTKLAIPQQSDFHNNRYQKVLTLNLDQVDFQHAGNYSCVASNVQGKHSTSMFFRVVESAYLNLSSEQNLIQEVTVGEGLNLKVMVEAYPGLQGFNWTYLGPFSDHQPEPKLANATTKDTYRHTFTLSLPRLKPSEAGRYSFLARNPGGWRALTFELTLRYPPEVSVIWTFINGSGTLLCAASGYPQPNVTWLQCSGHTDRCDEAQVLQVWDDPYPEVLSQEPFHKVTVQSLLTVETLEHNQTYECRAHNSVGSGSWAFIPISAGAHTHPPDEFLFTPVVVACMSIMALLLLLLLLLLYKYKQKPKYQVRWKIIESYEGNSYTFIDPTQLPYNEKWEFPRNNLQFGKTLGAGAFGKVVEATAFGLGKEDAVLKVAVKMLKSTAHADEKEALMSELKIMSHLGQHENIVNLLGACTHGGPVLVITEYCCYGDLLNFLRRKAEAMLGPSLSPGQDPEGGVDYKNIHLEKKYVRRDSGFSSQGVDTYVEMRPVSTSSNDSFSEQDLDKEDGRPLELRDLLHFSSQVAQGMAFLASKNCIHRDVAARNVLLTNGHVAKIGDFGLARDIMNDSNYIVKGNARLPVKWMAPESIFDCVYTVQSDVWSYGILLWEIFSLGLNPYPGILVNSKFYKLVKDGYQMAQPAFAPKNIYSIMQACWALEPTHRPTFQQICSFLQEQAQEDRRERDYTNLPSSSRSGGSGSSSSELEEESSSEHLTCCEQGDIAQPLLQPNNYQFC
Sequence of FLT-3 (P36888 27-993): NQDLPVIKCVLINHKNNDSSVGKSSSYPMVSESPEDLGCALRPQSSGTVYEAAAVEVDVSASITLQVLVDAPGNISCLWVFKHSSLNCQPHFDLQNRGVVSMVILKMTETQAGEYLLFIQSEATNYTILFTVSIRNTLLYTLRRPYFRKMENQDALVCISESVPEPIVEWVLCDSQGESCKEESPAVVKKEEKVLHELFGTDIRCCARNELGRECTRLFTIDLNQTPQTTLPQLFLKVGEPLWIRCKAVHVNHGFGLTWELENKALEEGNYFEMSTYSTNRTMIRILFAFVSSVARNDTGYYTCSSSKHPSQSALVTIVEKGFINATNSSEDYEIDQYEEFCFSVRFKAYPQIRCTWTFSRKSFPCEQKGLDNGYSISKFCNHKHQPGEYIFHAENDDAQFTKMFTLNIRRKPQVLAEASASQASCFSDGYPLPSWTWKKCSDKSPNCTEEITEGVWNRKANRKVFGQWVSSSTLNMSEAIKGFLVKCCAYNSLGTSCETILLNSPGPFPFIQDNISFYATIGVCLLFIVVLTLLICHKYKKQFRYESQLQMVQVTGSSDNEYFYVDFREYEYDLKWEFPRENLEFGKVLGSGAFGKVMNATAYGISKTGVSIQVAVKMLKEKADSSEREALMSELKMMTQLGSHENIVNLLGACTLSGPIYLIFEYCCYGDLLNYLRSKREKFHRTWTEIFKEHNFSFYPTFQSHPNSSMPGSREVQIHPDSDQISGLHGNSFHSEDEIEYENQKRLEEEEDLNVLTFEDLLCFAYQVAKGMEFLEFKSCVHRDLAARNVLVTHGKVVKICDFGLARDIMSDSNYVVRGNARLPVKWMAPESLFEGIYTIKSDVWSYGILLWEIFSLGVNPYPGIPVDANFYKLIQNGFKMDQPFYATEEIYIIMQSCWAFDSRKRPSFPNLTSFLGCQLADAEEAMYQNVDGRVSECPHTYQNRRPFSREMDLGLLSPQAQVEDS
Sequence of c-Kit (P10721 26-976): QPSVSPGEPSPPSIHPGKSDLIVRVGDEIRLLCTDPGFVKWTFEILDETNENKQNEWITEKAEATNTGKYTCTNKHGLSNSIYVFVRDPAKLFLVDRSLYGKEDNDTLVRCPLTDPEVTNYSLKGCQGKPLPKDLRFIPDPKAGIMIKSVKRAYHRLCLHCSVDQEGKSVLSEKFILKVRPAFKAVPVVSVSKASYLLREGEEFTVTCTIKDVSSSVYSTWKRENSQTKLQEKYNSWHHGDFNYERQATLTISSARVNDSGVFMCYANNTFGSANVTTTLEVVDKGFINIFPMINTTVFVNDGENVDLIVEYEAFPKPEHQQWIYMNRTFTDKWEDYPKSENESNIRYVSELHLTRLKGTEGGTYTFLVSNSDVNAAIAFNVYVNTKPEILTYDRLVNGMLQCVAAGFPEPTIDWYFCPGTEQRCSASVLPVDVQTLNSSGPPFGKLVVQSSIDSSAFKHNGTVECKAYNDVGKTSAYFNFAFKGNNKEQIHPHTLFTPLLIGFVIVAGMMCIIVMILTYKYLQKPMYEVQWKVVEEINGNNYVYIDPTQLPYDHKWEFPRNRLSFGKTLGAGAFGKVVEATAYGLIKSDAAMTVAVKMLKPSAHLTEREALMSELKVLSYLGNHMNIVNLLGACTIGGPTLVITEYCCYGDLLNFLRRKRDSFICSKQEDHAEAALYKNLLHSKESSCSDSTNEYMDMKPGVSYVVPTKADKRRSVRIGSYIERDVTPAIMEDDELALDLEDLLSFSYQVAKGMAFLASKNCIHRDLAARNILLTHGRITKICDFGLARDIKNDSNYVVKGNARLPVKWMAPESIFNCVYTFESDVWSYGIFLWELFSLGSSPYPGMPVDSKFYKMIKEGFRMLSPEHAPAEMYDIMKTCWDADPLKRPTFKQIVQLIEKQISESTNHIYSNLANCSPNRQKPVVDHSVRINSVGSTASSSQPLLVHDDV
Sequence of FMS (P07333 20-972): as the sequence (P07333 20-972, species assumed) above
Experimental for FMS: Place the culture plate in a cell incubator and incubate for 4 hours. […] Add the diluted recombinant human MCSF to a 24-well plate at 100 μL per well, mix quickly and incubate in an incubator for 4 minutes.

As to `Cn1cc(-c2cc(Oc3ccc(NC(=O)N4CCC5(CCC5)C4=O)nc3)ccn2)cn1` [Compound 1], the IC50 on FLT-3 was above 10000 nM. For the same compound, in data set [1], the AUC stood at 26600 ng·h/mL, the bioavailability was 100%, the concentration peaked (Cmax) at 3390 ng/mL and the half-life was 2.73 h. In addition, the IC50 on c-Kit was determined as 3.5 nM. For the same compound, the IC50 at PDGFRβ is 2860 nM.
Compound `Cn1cc(-c2cc(Oc3ccc(NC(=O)N4CCC5(CCCCC5)C4=O)nc3)ccn2)cn1` [Compound 2] gave an IC50 against CSF1R of 6.2 nM. In data set [1], the AUC worked out at 6100 ng·h/mL, the bioavailability came out at 71.5%, the Cmax came out at 860 ng/mL and the half-life is 3.14 h. Besides, on c-Kit, the IC50 turned out to be 5.4 nM. In addition, the IC50 on PDGFRβ was 1580 nM.
As to `Cn1cc(-c2cc(Oc3ccc(NC(=O)N4CCC5(CCCC5)C4=O)nc3)ccn2)cn1` [Compound 3], the IC50 on CSF1R came to 1.1 nM. In data set [1], the AUC worked out at 15800 ng·h/mL, the bioavailability was found to be 89.5%, the Cmax stood at 3200 ng/mL and the half-life was 3.3 h. Moreover, the IC50 at c-Kit amounted to 2.6 nM. The IC50 at PDGFRβ was determined as 1620 nM.
Turning to `Cn1cc(-c2cc(Oc3ccc(NC(=O)N4CCC5(CCC(F)(F)CC5)C4=O)nc3)ccn2)cn1` [Compound 4], on FLT-3, the concentration for half-maximal inhibition (IC50) is above 10000 nM. In data set [1], the AUC is 38800 ng·h/mL, the bioavailability was 100%, the highest level (Cmax) was 5270 ng/mL and the half-life was 2.64 h. Besides, the IC50 at c-Kit came out at 16 nM. The IC50 on PDGFRβ worked out at 783 nM.
At CSF1R, `Cn1cc(-c2cc(Oc3ccc(NC(=O)N4CCC5(CCOCC5)C4=O)nc3)ccn2)cn1` [Compound 5] came in with an IC50 of 9.1 nM.
On to `Cn1cc(-c2cc(Oc3ccc(NC(=O)N4CCC5(CCCCC5(F)F)C4=O)nc3)ccn2)cn1` (stereo not shown) [Compound 6], for which the IC50 against CSF1R came to 5.4 nM.
In turn, `Cn1cc(-c2cc(Oc3ccc(NC(=O)N4CCC5(CCCO5)C4=O)nc3)ccn2)cn1` (stereo not shown) [Compound 7] gave an IC50 against CSF1R of 2.7 nM.
Still for that read-out and setting: as for `Cn1cc(-c2cc(Oc3ccc(NC(=O)N4CCC5(CCCC5(F)F)C4=O)nc3)ccn2)cn1` (stereo not shown) [Compound 8], the figure is 2.3 nM; as for `Cn1cc(-c2cc(Oc3ccc(NC(=O)N4CCC5(CCCCC5F)C4=O)nc3)ccn2)cn1` (stereo not shown) [Compound 9], 2.1 nM.
As to `Cn1cc(-c2cc(Oc3ccc(NC(=O)N4CCC5(CC5)C4=O)nc3)ccn2)cn1` [Compound 10], the EC50 on FMS was 4 nM. In addition, the IC50 against CSF1R stood at 0.55 nM. Moreover, in data set [1], the AUC amounted to 21300 ng·h/mL, the bioavailability was 64%, the peak level (Cmax) was 2240 ng/mL and the half-life was 5.18 h.
`Cn1cc(-c2cc(Oc3ccc(NC(=O)N4CCC5(CCNCC5)C4=O)nc3)ccn2)cn1` [Compound 11] gave an IC50 against CSF1R of 300 nM.
On to `CC(=O)N1CCC2(CC1)CCN(C(=O)Nc1ccc(Oc3ccnc(-c4cnn(C)c4)c3)cn1)C2=O` [Compound 12], for which, on CSF1R, half-maximal inhibition (IC50) was put at 171 nM.
On the same count and under the same terms, as for `Cn1cc(-c2cc(Oc3ccc(NC(=O)N4CCC5(CCN(S(C)(=O)=O)CC5)C4=O)nc3)ccn2)cn1` [Compound 13], the figure is 25 nM.
Take `Cc1nc(NC(=O)N2CCC3(CCC(F)(F)CC3)C2=O)ccc1Oc1ccnc(-c2cnn(C)c2)c1` [Compound 14]: the IC50 on FLT-3 is above 10000 nM. In addition, in data set [1], the AUC stood at 20300 ng·h/mL, the bioavailability amounted to 67.3%, the Cmax came out at 1400 ng/mL and the half-life is 5.91 h. Further, the IC50 at c-Kit turned out to be 17 nM. Also, the IC50 on PDGFRβ is above 10000 nM.
As to `Cc1nc(NC(=O)N2CCC3(CCC3)C2=O)ccc1Oc1ccnc(-c2cnn(C)c2)c1` [Compound 15], the figures for the IC50 on FLT-3, on c-Kit and on PDGFRβ were above 10000 nM, 29 nM and above 10000 nM, respectively.
At CSF1R, `CCc1nc(NC(=O)N2CCC3(CCC(F)(F)CC3)C2=O)ccc1Oc1ccnc(-c2cnn(C)c2)c1` [Compound 16] showed a half-inhibitory concentration (IC50) of 6.4 nM.
At CSF1R, `Cn1cc(-c2cc(Oc3ccc(NC(=O)N4CCC5(CCCC(O)C5)C4=O)nc3)ccn2)cn1` (stereo not shown) [Compound 17] returned an IC50 of 6.5 nM.
Regarding `Cn1cc(-c2cc(Oc3ccc(NC(=O)N4CCC5(CCCC(F)(F)C5)C4=O)nc3)ccn2)cn1` (stereo not shown) [Compound 18], the IC50 amounted to 8630 nM on FLT-3, 8.4 nM at c-Kit and 343 nM on PDGFRβ.
For the compound `Cn1cc(-c2cc(Oc3ccc(NC(=O)N4CCC5(CCC(=O)C5)C4=O)nc3)ccn2)cn1` (stereo not shown) [Compound 19], the IC50 on FLT-3 was above 10000 nM; on c-Kit it was 11 nM; at PDGFRβ, 719 nM.
Turning to `O=C(Nc1ccc(Oc2ccnc(-c3cn[nH]c3)c2)cn1)N1CCC2(CCC(F)(F)CC2)C1=O` [Compound 21], the IC50 was 10.1 nM on c-Kit and 7450 nM at PDGFRβ.
For `CN1CCC(c2ccc(-c3cc(Oc4ccc(NC(=O)N5CCC6(CCC(F)(F)CC6)C5=O)nc4)ccn3)cc2)CC1` [Compound 22], the IC50 against CSF1R came to 6.7 nM.
Same read-out and setting: as for `Cc1ncc(-c2cc(Oc3ccc(NC(=O)N4CCC5(CCC(F)(F)CC5)C4=O)nc3)ccn2)s1` [Compound 23], the figure is 5.3 nM.
As for `Cn1cc(-c2cc(Oc3ccc(NC(=O)N4CCC5(CCCC(F)(F)C5)C4=O)nc3)ccn2)cn1` (stereo not shown) [Compound 24], the IC50 on c-Kit is 20 nM.
Same read-out and setting: as for `Cn1cc(-c2cc(Oc3ccc(NC(=O)N4CCC5(CCC(F)(F)C5)C4=O)nc3)ccn2)cn1` (stereo not shown) [Compound 25], the figure is 5 nM.
For the compound `Cn1cc(-c2cc(Oc3ccc(NC(=O)N4CCC5(CC(F)(F)C5)C4=O)nc3)ccn2)cn1` [Compound 26], at FLT-3, the IC50 was above 10000 nM. Further, in data set [1], the AUC was 48300 ng·h/mL, the bioavailability was 79%, the peak level (Cmax) was 4490 ng/mL and the half-life was 6.72 h. Further, on c-Kit, the IC50 is 4.5 nM. Also, the IC50 at PDGFRβ is 2810 nM.

As usually defined, the IC50 is the midpoint of a concentration-inhibition curve. By AUC is commonly meant concentration integrated over time. Lower therefore signals low exposure. As a reminder, the bioavailability is the share of a dose that reaches the circulation, judged against a reference dose that is usually intravenous. Read a low bioavailability as little systemic uptake. What is called Cmax is the highest concentration seen after dosing. For orientation: EC50 means the midpoint of the concentration-response curve. A lower EC50 goes with greater potency.

The values are drawn from US11591328B2 (XIAMEN BIOTIME BIOTECHNOLOGY CO., LTD., priority 2018, dated 2023).
